From publication PMC9481151, “Discovery of new symmetrical and asymmetrical nitrile-containing 1,4-dihydropyridine derivatives as dual kinases and P-glycoprotein inhibitors: synthesis, in vitro assays, and in silico studies” (Journal of Enzyme Inhibition and Medicinal Chemistry, 2022)

Columns and labels:
CCRF-CEM = experiment: NCI single dose (10 µM) SRB screen; assay type: cell-based, human; conditions: leukaemia, 48 h
HL-60(TB) = experiment: NCI single dose (10 µM) SRB screen; assay type: cell-based, human; conditions: leukaemia, 48 h
K-562 = experiment: NCI single dose (10 µM) SRB screen; assay type: cell-based, human; conditions: leukaemia, 48 h
MOLT-4 = experiment: NCI single dose (10 µM) SRB screen; assay type: cell-based, human; conditions: leukaemia, 48 h
RPMI-8226 = experiment: NCI single dose (10 µM) SRB screen; assay type: cell-based, human; conditions: leukaemia, 48 h
SR = experiment: NCI single dose (10 µM) SRB screen; assay type: cell-based, human; conditions: leukaemia, 48 h
A549/ATCC = experiment: NCI single dose (10 µM) SRB screen; assay type: cell-based, human; conditions: non-small cell lung cancer, 48 h
EKVX = experiment: NCI single dose (10 µM) SRB screen; assay type: cell-based, human; conditions: non-small cell lung cancer, 48 h
HOP-62 = experiment: NCI single dose (10 µM) SRB screen; assay type: cell-based, human; conditions: non-small cell lung cancer, 48 h
HOP-92 = experiment: NCI single dose (10 µM) SRB screen; assay type: cell-based, human; conditions: non-small cell lung cancer, 48 h
NCI-H226 = experiment: NCI single dose (10 µM) SRB screen; assay type: cell-based, human; conditions: non-small cell lung cancer, 48 h
NCI-H23 = experiment: NCI single dose (10 µM) SRB screen; assay type: cell-based, human; conditions: non-small cell lung cancer, 48 h
NCI-H322M = experiment: NCI single dose (10 µM) SRB screen; assay type: cell-based; conditions: non-small cell lung cancer, 48 h
NCI-H460 = experiment: NCI single dose (10 µM) SRB screen; assay type: cell-based, human; conditions: non-small cell lung cancer, 48 h
NCI-H522 = experiment: NCI single dose (10 µM) SRB screen; assay type: cell-based, human; conditions: non-small cell lung cancer, 48 h
COLO 205 = experiment: NCI single dose (10 µM) SRB screen; assay type: cell-based, human; conditions: colon cancer, 48 h
HCC-2998 = experiment: NCI single dose (10 µM) SRB screen; assay type: cell-based, human; conditions: colon cancer, 48 h
HCT-116 = experiment: NCI single dose (10 µM) SRB screen; assay type: cell-based, human; conditions: colon cancer, 48 h
HCT-15 = experiment: NCI single dose (10 µM) SRB screen; assay type: cell-based, human; conditions: colon cancer, 48 h
HT29 = experiment: NCI single dose (10 µM) SRB screen; assay type: cell-based, human; conditions: colon cancer, 48 h
KM12 = experiment: NCI single dose (10 µM) SRB screen; assay type: cell-based, human; conditions: colon cancer, 48 h
SW-620 = experiment: NCI single dose (10 µM) SRB screen; assay type: cell-based, human; conditions: colon cancer, 48 h
SF-268 = experiment: NCI single dose (10 µM) SRB screen; assay type: cell-based, human; conditions: CNS cancer, 48 h
SF-295 = experiment: NCI single dose (10 µM) SRB screen; assay type: cell-based, human; conditions: CNS cancer, 48 h
SF-539 = experiment: NCI single dose (10 µM) SRB screen; assay type: cell-based, human; conditions: CNS cancer, 48 h
SNB-19 = experiment: NCI single dose (10 µM) SRB screen; assay type: cell-based, human; conditions: CNS cancer, 48 h
SNB-75 = experiment: NCI single dose (10 µM) SRB screen; assay type: cell-based, human; conditions: CNS cancer, 48 h
U251 = experiment: NCI single dose (10 µM) SRB screen; assay type: cell-based, human; conditions: CNS cancer, 48 h
LOX IMVI = experiment: NCI single dose (10 µM) SRB screen; assay type: cell-based, human; conditions: melanoma, 48 h
MALME-3M = experiment: NCI single dose (10 µM) SRB screen; assay type: cell-based, human; conditions: melanoma, 48 h
M14 = experiment: NCI single dose (10 µM) SRB screen; assay type: cell-based, human; conditions: melanoma, 48 h
MDA-MB-435 = experiment: NCI single dose (10 µM) SRB screen; assay type: cell-based, human; conditions: melanoma, 48 h
SK-MEL-2 = experiment: NCI single dose (10 µM) SRB screen; assay type: cell-based, human; conditions: melanoma, 48 h
SK-MEL-28 = experiment: NCI single dose (10 µM) SRB screen; assay type: cell-based, human; conditions: melanoma, 48 h
SK-MEL-5 = experiment: NCI single dose (10 µM) SRB screen; assay type: cell-based, human; conditions: melanoma, 48 h
UACC-257 = experiment: NCI single dose (10 µM) SRB screen; assay type: cell-based, human; conditions: melanoma, 48 h
UACC-62 = experiment: NCI single dose (10 µM) SRB screen; assay type: cell-based, human; conditions: melanoma, 48 h
IGROV1 = experiment: NCI single dose (10 µM) SRB screen; assay type: cell-based, human; conditions: ovarian cancer, 48 h
OVCAR-3 = experiment: NCI single dose (10 µM) SRB screen; assay type: cell-based, human; conditions: ovarian cancer, 48 h
OVCAR-4 = experiment: NCI single dose (10 µM) SRB screen; assay type: cell-based, human; conditions: ovarian cancer, 48 h
OVCAR-5 = experiment: NCI single dose (10 µM) SRB screen; assay type: cell-based, human; conditions: ovarian cancer, 48 h
OVCAR-8 = experiment: NCI single dose (10 µM) SRB screen; assay type: cell-based, human; conditions: ovarian cancer, 48 h
NCI/ADR-RES = experiment: NCI single dose (10 µM) SRB screen; assay type: cell-based, human; conditions: ovarian cancer, 48 h
SK-OV-3 = experiment: NCI single dose (10 µM) SRB screen; assay type: cell-based, human; conditions: ovarian cancer, 48 h
786-0 = experiment: NCI single dose (10 µM) SRB screen; assay type: cell-based, human; conditions: renal cancer, 48 h
A498 = experiment: NCI single dose (10 µM) SRB screen; assay type: cell-based, human; conditions: renal cancer, 48 h
ACHN = experiment: NCI single dose (10 µM) SRB screen; assay type: cell-based, human; conditions: renal cancer, 48 h
CAKI-1 = experiment: NCI single dose (10 µM) SRB screen; assay type: cell-based, human; conditions: renal cancer, 48 h
RXF 393 = experiment: NCI single dose (10 µM) SRB screen; assay type: cell-based, human; conditions: renal cancer, 48 h
SN12C = experiment: NCI single dose (10 µM) SRB screen; assay type: cell-based, human; conditions: renal cancer, 48 h
TK-10 = experiment: NCI single dose (10 µM) SRB screen; assay type: cell-based, human; conditions: renal cancer, 48 h
UO-31 = experiment: NCI single dose (10 µM) SRB screen; assay type: cell-based, human; conditions: renal cancer, 48 h
PC-3 = experiment: NCI single dose (10 µM) SRB screen; assay type: cell-based, human; conditions: prostate cancer, 48 h
DU-145 = experiment: NCI single dose (10 µM) SRB screen; assay type: cell-based, human; conditions: prostate cancer, 48 h
MCF7 = experiment: NCI single dose (10 µM) SRB screen; assay type: cell-based, human; conditions: breast cancer, 48 h
MDA-MB-231 = experiment: NCI single dose (10 µM) SRB screen; assay type: cell-based, human; conditions: breast cancer, 48 h
HS578T = experiment: NCI single dose (10 µM) SRB screen; assay type: cell-based, human; conditions: breast cancer, 48 h
BT-549 = experiment: NCI single dose (10 µM) SRB screen; assay type: cell-based, human; conditions: breast cancer, 48 h
T-47D = experiment: NCI single dose (10 µM) SRB screen; assay type: cell-based, human; conditions: breast cancer, 48 h
MDA-MB-468 = experiment: NCI single dose (10 µM) SRB screen; assay type: cell-based, human; conditions: breast cancer, 48 h
NCI 60 cancer cell lines = experiment: NCI single dose (10 µM) SRB screen, mean over panel; assay type: cell-based, human; conditions: mean over 60 cell lines, 48 h
Staphylococcus aureus = experiment: Agar well diffusion method
Bacillus subtilis = experiment: Agar well diffusion method; conditions: relative to ciprofloxacin
Escherichia coli = experiment: Agar well diffusion method; conditions: relative to ciprofloxacin
Pseudomonas aeruginosa = experiment: Agar well diffusion method; conditions: relative to ciprofloxacin
Candida albicans = experiment: Agar well diffusion method; conditions: relative to clotrimazole
Aspergillus flavus = experiment: Agar well diffusion method; conditions: relative to clotrimazole

- melting point: 121 to 122 °C
SMILES: CCCC1=C(C(=O)OCC)C(c2cccc(C#N)c2)C(C(=O)OC)=C(C)N1 (racemic) [Compound 2f, (±)-3-Ethyl 5-methyl 4-(3-cyanophenyl)-6-methyl-2-propyl-1,4-dihydropyridine-3,5-dicarboxylate]
- GI% CCRF-CEM (CCRF-CEM): – (Only GI% ≥ 10 are shown)
- GI% HL-60(TB) (HL-60(TB)): 11%
- GI% K-562 (K-562): – (Only GI% ≥ 10 are shown)
- GI% MOLT-4 (MOLT-4): 14%
- GI% RPMI-8226 (RPMI-8226): 12%
- GI% SR (SR): – (Only GI% ≥ 10 are shown)
- GI% A549/ATCC (A549/ATCC): – (Only GI% ≥ 10 are shown)
- GI% EKVX (EKVX): – (Only GI% ≥ 10 are shown)
- GI% HOP-62 (HOP-62): – (Only GI% ≥ 10 are shown)
- GI% HOP-92 (HOP-92): – (Only GI% ≥ 10 are shown)
- GI% NCI-H226 (NCI-H226): – (Only GI% ≥ 10 are shown)
- GI% NCI-H23 (NCI-H23): – (Only GI% ≥ 10 are shown)
- GI% NCI-H322M (NCI-H322M): – (Only GI% ≥ 10 are shown)
- GI% NCI-H460 (NCI-H460): – (Only GI% ≥ 10 are shown)
- GI% NCI-H522 (NCI-H522): – (Only GI% ≥ 10 are shown)
- GI% COLO 205 (COLO 205): – (Only GI% ≥ 10 are shown)
- GI% HCC-2998 (HCC-2998): – (Only GI% ≥ 10 are shown)
- GI% HCT-116 (HCT-116): 11%
- GI% HCT-15 (HCT-15): – (Only GI% ≥ 10 are shown)
- GI% HT29 (HT29): – (Only GI% ≥ 10 are shown)
- GI% KM12 (KM12): – (Only GI% ≥ 10 are shown)
- GI% SW-620 (SW-620): – (Only GI% ≥ 10 are shown)
- GI% SF-268 (SF-268): – (Only GI% ≥ 10 are shown)
- GI% SF-295 (SF-295): – (Only GI% ≥ 10 are shown)
- GI% SF-539 (SF-539): – (Only GI% ≥ 10 are shown)
- GI% SNB-19 (SNB-19): – (Only GI% ≥ 10 are shown)
- GI% SNB-75 (SNB-75): 37%
- GI% U251 (U251): – (Only GI% ≥ 10 are shown)
- GI% LOX IMVI (LOX IMVI): – (Only GI% ≥ 10 are shown)
- GI% MALME-3M (MALME-3M): – (Only GI% ≥ 10 are shown)
- GI% M14 (M14): – (Only GI% ≥ 10 are shown)
- GI% MDA-MB-435 (MDA-MB-435): – (Only GI% ≥ 10 are shown)
- GI% SK-MEL-2 (SK-MEL-2): – (Only GI% ≥ 10 are shown)
- GI% SK-MEL-28 (SK-MEL-28): – (Only GI% ≥ 10 are shown)
- GI% SK-MEL-5 (SK-MEL-5): – (Only GI% ≥ 10 are shown)
- GI% UACC-257 (UACC-257): – (Only GI% ≥ 10 are shown)
- GI% UACC-62 (UACC-62): 21%
- GI% IGROV1 (IGROV1): – (Only GI% ≥ 10 are shown)
- GI% OVCAR-3 (OVCAR-3): – (Only GI% ≥ 10 are shown)
- GI% OVCAR-4 (OVCAR-4): – (Only GI% ≥ 10 are shown)
- GI% OVCAR-5 (OVCAR-5): – (Only GI% ≥ 10 are shown)
- GI% OVCAR-8 (OVCAR-8): – (Only GI% ≥ 10 are shown)
- GI% NCI/ADR-RES (NCI/ADR-RES): – (Only GI% ≥ 10 are shown)
- GI% SK-OV-3 (SK-OV-3): – (Only GI% ≥ 10 are shown)
- GI% 786-0 (786-0): – (Only GI% ≥ 10 are shown)
- GI% A498 (A498): – (Only GI% ≥ 10 are shown)
- GI% ACHN (ACHN): – (Only GI% ≥ 10 are shown)
- GI% CAKI-1 (CAKI-1): 18%
- GI% RXF 393 (RXF 393): – (Only GI% ≥ 10 are shown)
- GI% SN12C (SN12C): – (Only GI% ≥ 10 are shown)
- GI% TK-10 (TK-10): – (Only GI% ≥ 10 are shown)
- GI% UO-31 (UO-31): 13%
- GI% PC-3 (PC-3): 23%
- GI% DU-145 (DU-145): – (Only GI% ≥ 10 are shown)
- GI% MCF7 (MCF7): – (Only GI% ≥ 10 are shown)
- GI% MDA-MB-231 (MDA-MB-231): – (Only GI% ≥ 10 are shown)
- GI% HS578T (HS578T): – (Only GI% ≥ 10 are shown)
- GI% BT-549 (BT-549): – (Only GI% ≥ 10 are shown)
- GI% T-47D (T-47D): – (Only GI% ≥ 10 are shown)
- GI% MDA-MB-468 (MDA-MB-468): – (Only GI% ≥ 10 are shown)
- Mean GI% (NCI 60 cancer cell lines): 1%
- zone of inhibition at 1000 µg/mL (Staphylococcus aureus; Staphylococcus aureus, 24 h, read-out: Diameter of inhibition zone, S. aureus): 6 mm
- % activity index, S. aureus (Staphylococcus aureus; relative to ciprofloxacin): 25%
- % activity index, B. subtilis (Bacillus subtilis): – (Values below 25 are of limited value and not shown as they refer either to inactive or non-diffusing compounds)
- % activity index, E. coli (Escherichia coli): – (Values below 25 are of limited value and not shown as they refer either to inactive or non-diffusing compounds)
- % activity index, P. aeruginosa (Pseudomonas aeruginosa): – (Values below 25 are of limited value and not shown as they refer either to inactive or non-diffusing compounds)
- % activity index, C. albicans (Candida albicans): – (Values below 25 are of limited value and not shown as they refer either to inactive or non-diffusing compounds)
- % activity index, A. flavus (Aspergillus flavus): – (Values below 25 are of limited value and not shown as they refer either to inactive or non-diffusing compounds)
